PubChem BioAssay (NCI)
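Results reflect a 48-hour exposure of cells in 96-well plates to compound at five concentrations. Here, GI50 denotes the concentration required for 50% inhibition of growth. TGI marks complete inhibition of growth.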

What was measured:
Experiment in all cases: NCI anticancer screen, dose series, 48 h
[1] = test system: SF-268 CNS
[2] = test system: SK-OV-3 ovarian
[3] = test system: MDA-MB-435
[4] = test system: MALME-3M melanoma
[5] = test system: UO-31 renal
[6] = test system: HOP-62 NSCLC
[7] = test system: RXF 393 renal
[8] = test system: HCT-15 colon
[9] = test system: A549 NSCLC
[10] = test system: HOP-92 NSCLC
[11] = test system: UACC-257 melanoma
[12] = test system: T-47D breast
[13] = test system: NCI-H522 lung
[14] = test system: NCI-H226 lung
[15] = test system: ACHN renal
[16] = test system: SK-MEL-28 melanoma
[17] = test system: SW-620 colon
[18] = test system: HS 578T breast
[19] = test system: U251 CNS
[20] = test system: EKVX NSCLC
[21] = test system: OVCAR-5 ovarian
[22] = test system: 786-0 renal
[23] = test system: HCC-2998 colon
[24] = test system: SF-539 CNS
[25] = test system: MCF7 breast
[26] = test system: MOLT-4 leukemia
[27] = test system: OVCAR-8 ovarian
[28] = test system: OVCAR-4 ovarian
[29] = test system: UACC-62 melanoma
[30] = test system: HL-60(TB) leukemia
[31] = test system: SF-295 CNS
[32] = test system: PC-3 prostate
[33] = test system: DU-145 prostate
[34] = test system: HT29 colon
[35] = test system: SR leukemia
[36] = test system: RPMI-8226 leukemia
[37] = test system: A498 renal
[38] = test system: SNB-75 CNS
[39] = test system: SK-MEL-5 melanoma
[40] = test system: BT-549 breast
[41] = test system: KM12 colon
[42] = test system: HCT-116 colon
[43] = test system: SNB-19 CNS
[44] = test system: MDA-MB-231 breast
[45] = test system: OVCAR-3 ovarian
[46] = test system: NCI/ADR-RES ovarian
[47] = test system: NCI-H23 lung
[48] = test system: TK-10 renal
[49] = test system: K-562 leukemia
[50] = test system: NCI-H460 lung
[51] = test system: SN12C renal
[52] = test system: CCRF-CEM leukemia
[53] = test system: M14 melanoma
[54] = test system: SK-MEL-2 melanoma
[55] = test system: IGROV1 ovarian
[56] = test system: LOX IMVI melanoma
[57] = test system: CAKI-1 renal
[58] = test system: COLO 205 colon

## COc1ccc(OC)c2c1C(=O)C(Cl)=C(N1CCN(CCOCCO)CC1)C2=O
[1]
  TGI: 29.5 µM
[2]
  TGI: 34 µM
[3]
  TGI: 27.9 µM
[4]
  TGI: 34.9 µM
[5]
  TGI: 29.9 µM
[6]
  TGI: 22.7 µM
[7]
  TGI: 33.4 µM
[8]
  TGI: 18.4 µM
[9]
  TGI: 39 µM
[10]
  TGI: 31.8 µM
[11]
  TGI: 33 µM
[12]
  TGI: 13.1 µM
[13]
  TGI: 20.9 µM
[14]
  TGI: 39.5 µM
[15]
  TGI: 30.3 µM
[16]
  TGI: 30.9 µM
[17]
  TGI: 28.7 µM
[18]
  TGI: 38.2 µM
[19]
  TGI: 41.3 µM
[20]
  TGI: 35.5 µM
[21]
  TGI: 37.3 µM
[22]
  TGI: 13.3 µM
[23]
  TGI: 24.9 µM
[24]
  TGI: 32.8 µM
[25]
  TGI: 15 µM
[26]
  TGI: 32.8 µM
[27]
  TGI: 30.9 µM
[28]
  TGI: 32 µM
[29]
  TGI: 15.5 µM
[30]
  TGI: 3.33 µM
[31]
  TGI: 32.9 µM
[32]
  TGI: 16 µM
[33]
  TGI: 32.8 µM
[34]
  TGI: 19.8 µM
[35]
  TGI: 29.3 µM
[36]
  TGI: 26.5 µM
[37]
  TGI: 30.5 µM
[38]
  TGI: 29.3 µM
[39]
  TGI: 31.3 µM
[40]
  TGI: 28 µM
[41]
  TGI: 37.2 µM
[42]
  TGI: 17 µM
[43]
  TGI: 29.5 µM
[44]
  TGI: 27.7 µM
[45]
  TGI: 31.1 µM
[46]
  TGI: 59 µM
[47]
  TGI: 21.6 µM
[48]
  TGI: 33.4 µM
[49]
  TGI: 4.24 µM
[50]
  TGI: 38 µM
[51]
  TGI: 25.5 µM
[52]
  TGI: 14.1 µM
[53]
  TGI: 31.7 µM

## COc1cc2c3c(n(CCCBr)c(=O)c2cc1OC)-c1ccc(NC(C)=O)cc1C3=O
[1]
  GI50: 2110 nM
  TGI: > 100 µM
[2]
  GI50: 2280 nM
  TGI: 10.6 µM
[3]
  GI50: 13.9 µM
  TGI: 78.3 µM
[54]
  GI50: 41.4 µM
  TGI: > 100 µM
[4]
  GI50: 60.9 µM
  TGI: > 100 µM
[5]
  GI50: 5.68 µM
  TGI: 65 µM
[6]
  GI50: 1290 nM
  TGI: 21.3 µM
[7]
  GI50: 13.3 µM
  TGI: 38.2 µM
[8]
  GI50: 30.8 µM
  TGI: > 100 µM
[9]
  GI50: 25.4 µM
  TGI: > 100 µM
[10]
  GI50: 73.4 µM
  TGI: > 100 µM
[11]
  GI50: 28.1 µM
  TGI: > 100 µM
[12]
  GI50: 1840 nM
  TGI: > 100 µM
[13]
  GI50: 12.4 µM
  TGI: > 100 µM
[14]
  GI50: 5.17 µM
  TGI: 57.3 µM
[15]
  GI50: 3.07 µM
  TGI: > 100 µM
[55]
  GI50: 10.8 µM
  TGI: > 100 µM
[16]
  GI50: 40.5 µM
  TGI: > 100 µM
[17]
  GI50: 963 nM
  TGI: > 100 µM
[18]
  GI50: 40.6 µM
  TGI: > 100 µM
[19]
  GI50: 1170 nM
  TGI: 44.1 µM
[20]
  GI50: 47.8 µM
  TGI: > 100 µM
[21]
  GI50: 52.6 µM
  TGI: > 100 µM
[22]
  GI50: 5.4 µM
  TGI: 25.2 µM
[23]
  GI50: 11.9 µM
  TGI: 43.9 µM
[56]
  GI50: 2100 nM
  TGI: 15 µM
[24]
  GI50: 3.78 µM
  TGI: 16.2 µM
[25]
  GI50: 1820 nM
  TGI: > 100 µM
[27]
  GI50: 18.7 µM
  TGI: > 100 µM
[28]
  GI50: 32.3 µM
  TGI: > 100 µM
[29]
  GI50: 2100 nM
  TGI: 15.7 µM
[30]
  GI50: 550 nM
  TGI: 7.78 µM
[31]
  GI50: 828 nM
  TGI: 11.5 µM
[32]
  GI50: 24.8 µM
  TGI: > 100 µM
[33]
  GI50: 4.65 µM
  TGI: > 100 µM
[34]
  GI50: 2990 nM
  TGI: > 100 µM
[35]
  GI50: 574 nM
  TGI: 12.6 µM
[36]
  GI50: 5.28 µM
  TGI: 27.2 µM
[37]
  GI50: 2690 nM
  TGI: 8.47 µM
[38]
  GI50: 12.1 µM
  TGI: 54 µM
[39]
  GI50: 2450 nM
  TGI: 13.7 µM
[40]
  GI50: 8 µM
  TGI: 34.7 µM
[41]
  GI50: 7.35 µM
  TGI: > 100 µM
[42]
  GI50: 2580 nM
  TGI: 18.1 µM
[43]
  GI50: 3.19 µM
  TGI: > 100 µM
[44]
  GI50: 25.8 µM
  TGI: > 100 µM
[45]
  GI50: 4.37 µM
  TGI: 24.9 µM
[46]
  GI50: 39.4 µM
  TGI: > 100 µM
[47]
  GI50: 11.8 µM
  TGI: 46.4 µM
[57]
  GI50: 1090 nM
  TGI: 7.21 µM
[48]
  GI50: 19.7 µM
  TGI: > 100 µM
[49]
  GI50: 3.84 µM
  TGI: 28.3 µM
[50]
  GI50: 506 nM
  TGI: 7.31 µM
[58]
  GI50: 14.1 µM
  TGI: > 100 µM
[51]
  GI50: 13.9 µM
  TGI: > 100 µM
[52]
  GI50: 1440 nM
  TGI: 19.1 µM
[53]
  GI50: 4.33 µM
  TGI: 20.6 µM
